Experimental data published in the NIST ThermoML archive (doi:10.1016/j.jct.2009.03.009).

Legend:
[1] = xn = mol fraction of the nth substance listed; conditions: 313.15 K, 101 kPa, Liquid; for speed of sound: Sing-around technique in a fixed-path interferometer; for mass density: Vibrating tube method
[2] = refractive index (Na D-line) (dimensionless); xn = mol fraction of the nth substance listed; conditions: 313.15 K, 101 kPa, Liquid, Standard Abbe refractometry

CCCCCCCCC [nonane] + c1ccccc1
Conditions	mass density, [1] [kg/m3]	refractive index, [2]	speed of sound, [1] [m/s]
x1 = 0.0535	839.7	1.47693	1212.1
x1 = 0.1025	825.4	1.46801	1199
x1 = 0.2013	800.8	1.45327	1179.5
x1 = 0.3006	780.6	1.44079	1166.1
x1 = 0.3997	763.8	1.43104	1157.2
x1 = 0.5	749.5	1.42229	1151.4
x1 = 0.5992	737.3	1.41549	1147.7
x1 = 0.7052	726.2	1.40945	1145.9
x1 = 0.8034	717.2	1.40436	1145.2
x1 = 0.9018	709.3	1.3999	1145.6
x1 = 0.9499	705.7	1.39796	1145.9
x1 = 1	702.2	1.39609	1146.4

CCCCCCCC [octane] + CCc1ccccc1
x1 = 1
Conditions	mass density [kg/m3]	refractive index	speed of sound [m/s]
[1]	686.3	–	1110.6
[2]	–	1.38769	–

CCCCCCCC [octane] + Cc1ccccc1
Conditions	mass density, [1] [kg/m3]	refractive index, [2]	speed of sound, [1] [m/s]
x1 = 0.0542	834.6	1.47708	1226.2
x1 = 0.1022	823.4	1.46982	1214.8
x1 = 0.2014	802	1.45667	1194.1
x1 = 0.3037	782	1.44463	1176.2
x1 = 0.3965	765.5	1.43362	1162.3
x1 = 0.4983	749.1	1.42473	1149.7
x1 = 0.5986	734.3	1.41567	1139.1
x1 = 0.7016	720.5	1.4075	1130
x1 = 0.8007	708.4	1.40046	1122.5
x1 = 0.902	696.6	1.39376	1116.1
x1 = 0.9493	691.6	1.39079	1113.1
x1 = 1	686.3	1.38769	1110.6

CCCCCCCC [octane] + c1ccccc1
Conditions	mass density, [1] [kg/m3]	refractive index, [2]	speed of sound, [1] [m/s]
x1 = 0.0541	839.6	1.4762	1210.5
x1 = 0.1014	825.5	1.46817	1196.3
x1 = 0.202	799.3	1.45259	1172.2
x1 = 0.3022	777.2	1.4384	1154.3
x1 = 0.404	758.4	1.42757	1140.9
x1 = 0.5023	742.2	1.41799	1131
x1 = 0.6011	728.3	1.41072	1123.7
x1 = 0.7087	714.9	1.4035	1118
x1 = 0.8051	704.4	1.3977	1114.4
x1 = 0.9015	695	1.39253	1112.1
x1 = 0.9514	690.5	1.39004	1111.2
x1 = 1	686.3	1.38769	1110.6

Cc1ccccc1 [toluene] + CCCCCC
x2 = 0
Conditions	mass density [kg/m3]	refractive index	speed of sound [m/s]
[1]	848	–	1240.7
[2]	–	1.48464	–

Cc1ccccc1 [toluene] + CCCCCCC
Conditions	mass density, [1] [kg/m3]	refractive index, [2]	speed of sound, [1] [m/s]
x2 = 0	848	1.48464	1240.7
x2 = 0.0496	835.7	1.47712	1225.2
x2 = 0.1037	822.8	1.46965	1211.4
x2 = 0.204	800.2	1.45586	1185.7
x2 = 0.406	759.4	1.43176	1144.8
x2 = 0.5045	741.5	1.42117	1127.8
x2 = 0.6016	724.9	1.41138	1113.1
x2 = 0.7011	709	1.40201	1099.4
x2 = 0.8029	693.7	1.39298	1087
x2 = 0.9019	679.7	1.38489	1075.9
x2 = 0.9517	673	1.38102	1071.2

Cc1ccccc1 [toluene] + CCCCCCCC
x2 = 0
Conditions	mass density [kg/m3]	refractive index	speed of sound [m/s]
[1]	848	–	1240.7
[2]	–	1.48509	–

Cc1ccccc1 [toluene] + CCCCCCCCC
x2 = 0
Conditions	mass density [kg/m3]	refractive index	speed of sound [m/s]
[1]	848	–	1240.7
[2]	–	1.48464	–
